Test system: elastin
Experiment: Induction of elastin
Format: cell-based
Details: final dose 10 μg/ml
Method: (§1) Higher elastin and collagen activity is indicative of anti-wrinkling or anti-aging effects. Activation of the antioxidant response element (ARE) pathway was also evaluated. The NF-E2-related factor (Nrf2) is a critical transcription factor in oxidative stress signaling. Nrf2 binds to the ARE and serves as a master regulator in cellular defense pathways. The ARE pathway mediates the transcriptional induction of a battery of genes that help to protect the cells against oxidative damage. Activation of the ARE promoter leads to more endogenous antioxidants and cell detoxification.

Compound | fold induction at 10 µg/mL | Elastin induction [x]
O=c1c(-c2ccc(O)c(O)c2)coc2cc(O)ccc12 [HI-1, 7,3,4′-trihydroxyisoflavone] | 1.5 | –
Oc1cc(O)c2cc(O)c(-c3cc(O)c(O)c(O)c3)[o+]c2c1 [HI-2, delphiniden] | – | 1.5
C=CCc1ccc(O)c(-c2cc(CC=C)ccc2O)c1 [HI-3, magnolol] | < 1.3 | –
O=c1c(-c2ccc(O)cc2)coc2cc(O)c(O)cc12 [HI-4, 6,7,4′-trihydroxyisoflavone] | 2 | –
O=C1C[C@@H](c2ccc(O)cc2)Oc2cc(O)cc(O)c21 [HI-5, naringenin] | 1.5 | –

Same assay, conditions: final dose 50 μg/ml

Compound | fold induction at 50 µg/mL | Elastin induction
O=c1c(-c2ccc(O)c(O)c2)coc2cc(O)ccc12 [HI-1, 7,3,4′-trihydroxyisoflavone] | 2 | –
Oc1cc(O)c2cc(O)c(-c3cc(O)c(O)c(O)c3)[o+]c2c1 [HI-2, delphiniden] | – | — (The dash (—) indicates <1.3x or no induction)
C=CCc1ccc(O)c(-c2cc(CC=C)ccc2O)c1 [HI-3, magnolol] | 4 | –
O=c1c(-c2ccc(O)cc2)coc2cc(O)c(O)cc12 [HI-4, 6,7,4′-trihydroxyisoflavone] | 2 | –
O=C1C[C@@H](c2ccc(O)cc2)Oc2cc(O)cc(O)c21 [HI-5, naringenin] | < 1.3 | –

Same assay, conditions: final dose 100 μg/ml

Compound | fold induction at 100 µg/mL | Elastin induction
O=c1c(-c2ccc(O)c(O)c2)coc2cc(O)ccc12 [HI-1, 7,3,4′-trihydroxyisoflavone] | < 1.3 | –
Oc1cc(O)c2cc(O)c(-c3cc(O)c(O)c(O)c3)[o+]c2c1 [HI-2, delphiniden] | – | — (The dash (—) indicates <1.3x or no induction)
C=CCc1ccc(O)c(-c2cc(CC=C)ccc2O)c1 [HI-3, magnolol] | 2.8 | –
O=c1c(-c2ccc(O)cc2)coc2cc(O)c(O)cc12 [HI-4, 6,7,4′-trihydroxyisoflavone] | < 1.3 | –
O=C1C[C@@H](c2ccc(O)cc2)Oc2cc(O)cc(O)c21 [HI-5, naringenin] | 1.5 | –

Same assay, conditions: first rating in cell

Compound | Rating (Elastin)
Oc1cc(O)c2cc(O)c(-c3cc(O)c(O)c(O)c3)[o+]c2c1 [HI-2, delphiniden] | none
C=CCc1ccc(O)c(-c2cc(CC=C)ccc2O)c1 [HI-3, magnolol] | none

Test system: UV-induced ROS
Experiment: Inhibition of the production of UV-induced reactive oxygen species (ROS)
Format: cell-based
Details: final dose 10 μg/ml
Method: The effect of the compounds of EXAMPLE 20 on inhibition of the production of reactive oxygen species (ROS), which can damage skin cells, was evaluated.

Compound | % inhibition of UV-induced ROS [%]
Oc1cc(O)c2cc(O)c(-c3cc(O)c(O)c(O)c3)[o+]c2c1 [HI-2, delphiniden] | >70

Same assay, conditions: final dose 10 μg/ml; read-out: % inhibition of UV-induced ROS

Compound | inhibition at 10 µg/mL [%]
O=c1c(-c2ccc(O)c(O)c2)coc2cc(O)ccc12 [HI-1, 7,3,4′-trihydroxyisoflavone] | > 70
O=c1c(-c2ccc(O)cc2)coc2cc(O)c(O)cc12 [HI-4, 6,7,4′-trihydroxyisoflavone] | > 70
O=C1C[C@@H](c2ccc(O)cc2)Oc2cc(O)cc(O)c21 [HI-5, naringenin] | ~25

Same assay, conditions: read-out: % inhibition of UV-induced ROS

Compound | inhibition at 10 µg/mL [%]
C=CCc1ccc(O)c(-c2cc(CC=C)ccc2O)c1 [HI-3, magnolol] | ~10

Test system: collagen 1A
Experiment: Induction of collagen 1A
Format: cell-based
Details: final dose 10 μg/ml
Method: as §1

Compound | fold induction at 10 µg/mL | Collagen 1A induction
O=c1c(-c2ccc(O)c(O)c2)coc2cc(O)ccc12 [HI-1, 7,3,4′-trihydroxyisoflavone] | 1.5 | –
Oc1cc(O)c2cc(O)c(-c3cc(O)c(O)c(O)c3)[o+]c2c1 [HI-2, delphiniden] | – | — (The dash (—) indicates <1.3x or no induction)
C=CCc1ccc(O)c(-c2cc(CC=C)ccc2O)c1 [HI-3, magnolol] | < 1.3 | –
O=c1c(-c2ccc(O)cc2)coc2cc(O)c(O)cc12 [HI-4, 6,7,4′-trihydroxyisoflavone] | 2 | –
O=C1C[C@@H](c2ccc(O)cc2)Oc2cc(O)cc(O)c21 [HI-5, naringenin] | < 1.3 | –

Same assay, conditions: final dose 50 μg/ml

Compound | fold induction at 50 µg/mL | Collagen 1A induction
O=c1c(-c2ccc(O)c(O)c2)coc2cc(O)ccc12 [HI-1, 7,3,4′-trihydroxyisoflavone] | 3 | –
Oc1cc(O)c2cc(O)c(-c3cc(O)c(O)c(O)c3)[o+]c2c1 [HI-2, delphiniden] | – | — (The dash (—) indicates <1.3x or no induction)
C=CCc1ccc(O)c(-c2cc(CC=C)ccc2O)c1 [HI-3, magnolol] | < 1.3 | –
O=c1c(-c2ccc(O)cc2)coc2cc(O)c(O)cc12 [HI-4, 6,7,4′-trihydroxyisoflavone] | < 1.3 | –
O=C1C[C@@H](c2ccc(O)cc2)Oc2cc(O)cc(O)c21 [HI-5, naringenin] | < 1.3 | –

Same assay, conditions: final dose 100 μg/ml

Compound | fold induction at 100 µg/mL | Collagen 1A induction
O=c1c(-c2ccc(O)c(O)c2)coc2cc(O)ccc12 [HI-1, 7,3,4′-trihydroxyisoflavone] | < 1.3 | –
Oc1cc(O)c2cc(O)c(-c3cc(O)c(O)c(O)c3)[o+]c2c1 [HI-2, delphiniden] | – | — (The dash (—) indicates <1.3x or no induction)
C=CCc1ccc(O)c(-c2cc(CC=C)ccc2O)c1 [HI-3, magnolol] | < 1.3 | –
O=c1c(-c2ccc(O)cc2)coc2cc(O)c(O)cc12 [HI-4, 6,7,4′-trihydroxyisoflavone] | < 1.3 | –
O=C1C[C@@H](c2ccc(O)cc2)Oc2cc(O)cc(O)c21 [HI-5, naringenin] | 1.3 | –

Same assay, conditions: second rating in cell

Compound | Rating (Collagen 1A)
O=c1c(-c2ccc(O)c(O)c2)coc2cc(O)ccc12 [HI-1, 7,3,4′-trihydroxyisoflavone] | **, **, N/A (medium activity (31-55%))
Oc1cc(O)c2cc(O)c(-c3cc(O)c(O)c(O)c3)[o+]c2c1 [HI-2, delphiniden] | none
C=CCc1ccc(O)c(-c2cc(CC=C)ccc2O)c1 [HI-3, magnolol] | none
O=c1c(-c2ccc(O)cc2)coc2cc(O)c(O)cc12 [HI-4, 6,7,4′-trihydroxyisoflavone] | ****, ****, **** (very high activity (>76%))
O=C1C[C@@H](c2ccc(O)cc2)Oc2cc(O)cc(O)c21 [HI-5, naringenin] | * (low activity (20-30%))

Test system: nuclear factor kappa B (NF-κB) pathway
Experiment: Cell-based assay of the nuclear factor kappa B (NF-κB) pathway
Details: NF-κB cell-based assay
Method: The effect of adding anti-aging and/or anti-wrinkling compounds to the skin care formulation of EXAMPLE 18 on nuclear factor kappa B (NF-κB) mediated-inflammation was evaluated.
A cell-based assay was performed to determine the effective of each of these compounds. The assay involved the effect of each compound on the nuclear factor kappa B (NF-κB) pathway. The inhibition of NF-κB is indicative of a protective effect against aging and wrinkling.

Compound | Cytotoxicity remark in Rating column
C=CCc1ccc(O)c(-c2cc(CC=C)ccc2O)c1 [HI-3, magnolol] | slightly cytotoxic

Same assay, conditions: final dose 10 μg/ml

Compound | % inhibition of NF-κB
O=c1c(-c2ccc(O)c(O)c2)coc2cc(O)ccc12 [HI-1, 7,3,4′-trihydroxyisoflavone] | none
Oc1cc(O)c2cc(O)c(-c3cc(O)c(O)c(O)c3)[o+]c2c1 [HI-2, delphiniden] | none
O=c1c(-c2ccc(O)cc2)coc2cc(O)c(O)cc12 [HI-4, 6,7,4′-trihydroxyisoflavone] | none
O=C1C[C@@H](c2ccc(O)cc2)Oc2cc(O)cc(O)c21 [HI-5, naringenin] | none

Same assay, conditions: final dose 50 μg/ml

Compound | % inhibition of NF-κB
Oc1cc(O)c2cc(O)c(-c3cc(O)c(O)c(O)c3)[o+]c2c1 [HI-2, delphiniden] | none
O=c1c(-c2ccc(O)cc2)coc2cc(O)c(O)cc12 [HI-4, 6,7,4′-trihydroxyisoflavone] | none

Same assay, conditions: final dose 50 μg/ml; read-out: % inhibition of NF-κB

Compound | inhibition at 50 µg/mL [%]
O=c1c(-c2ccc(O)c(O)c2)coc2cc(O)ccc12 [HI-1, 7,3,4′-trihydroxyisoflavone] | 14
O=C1C[C@@H](c2ccc(O)cc2)Oc2cc(O)cc(O)c21 [HI-5, naringenin] | 56

Same assay, conditions: final dose 100 μg/ml

Compound | % inhibition of NF-κB
Oc1cc(O)c2cc(O)c(-c3cc(O)c(O)c(O)c3)[o+]c2c1 [HI-2, delphiniden] | none
O=c1c(-c2ccc(O)cc2)coc2cc(O)c(O)cc12 [HI-4, 6,7,4′-trihydroxyisoflavone] | none

Same assay, conditions: final dose 100 μg/ml; read-out: % inhibition of NF-κB

Compound | inhibition at 100 µg/mL [%]
O=c1c(-c2ccc(O)c(O)c2)coc2cc(O)ccc12 [HI-1, 7,3,4′-trihydroxyisoflavone] | 40
O=C1C[C@@H](c2ccc(O)cc2)Oc2cc(O)cc(O)c21 [HI-5, naringenin] | 62

Same assay, conditions: one rating per compound

Compound | Rating (inhibition of NF-κB)
O=c1c(-c2ccc(O)c(O)c2)coc2cc(O)ccc12 [HI-1, 7,3,4′-trihydroxyisoflavone] | none
Oc1cc(O)c2cc(O)c(-c3cc(O)c(O)c(O)c3)[o+]c2c1 [HI-2, delphiniden] | none
C=CCc1ccc(O)c(-c2cc(CC=C)ccc2O)c1 [HI-3, magnolol] | **** (very high activity (>76%))
O=c1c(-c2ccc(O)cc2)coc2cc(O)c(O)cc12 [HI-4, 6,7,4′-trihydroxyisoflavone] | none
O=C1C[C@@H](c2ccc(O)cc2)Oc2cc(O)cc(O)c21 [HI-5, naringenin] | none

Same assay, conditions: read-out: % inhibition of NF-κB

Compound | inhibition at 10 µg/mL [%] | inhibition at 50 µg/mL [%] | inhibition at 100 µg/mL [%]
C=CCc1ccc(O)c(-c2cc(CC=C)ccc2O)c1 [HI-3, magnolol] | > 90 | > 90 | > 90

Test system: antioxidant response element (ARE) pathway
Experiment: Activation of the antioxidant response element (ARE) pathway
Format: cell-based
Details: final dose 10 μg/ml
Method: as §1

Compound | fold induction at 10 µg/mL | ARE activation
O=c1c(-c2ccc(O)c(O)c2)coc2cc(O)ccc12 [HI-1, 7,3,4′-trihydroxyisoflavone] | < 1.3 | –
Oc1cc(O)c2cc(O)c(-c3cc(O)c(O)c(O)c3)[o+]c2c1 [HI-2, delphiniden] | – | — (The dash (—) indicates <1.3x or no induction)
C=CCc1ccc(O)c(-c2cc(CC=C)ccc2O)c1 [HI-3, magnolol] | < 1.3 | –
O=c1c(-c2ccc(O)cc2)coc2cc(O)c(O)cc12 [HI-4, 6,7,4′-trihydroxyisoflavone] | 2 | –
O=C1C[C@@H](c2ccc(O)cc2)Oc2cc(O)cc(O)c21 [HI-5, naringenin] | 2 | –

Same assay, conditions: final dose 50 μg/ml

Compound | fold induction at 50 µg/mL | ARE activation
O=c1c(-c2ccc(O)c(O)c2)coc2cc(O)ccc12 [HI-1, 7,3,4′-trihydroxyisoflavone] | 3 | –
Oc1cc(O)c2cc(O)c(-c3cc(O)c(O)c(O)c3)[o+]c2c1 [HI-2, delphiniden] | – | — (The dash (—) indicates <1.3x or no induction)
C=CCc1ccc(O)c(-c2cc(CC=C)ccc2O)c1 [HI-3, magnolol] | < 1.3 | –
O=c1c(-c2ccc(O)cc2)coc2cc(O)c(O)cc12 [HI-4, 6,7,4′-trihydroxyisoflavone] | < 1.3 | –
O=C1C[C@@H](c2ccc(O)cc2)Oc2cc(O)cc(O)c21 [HI-5, naringenin] | 2 | –

Same assay, conditions: final dose 100 μg/ml

Compound | fold induction at 100 µg/mL | ARE activation [x]
O=c1c(-c2ccc(O)c(O)c2)coc2cc(O)ccc12 [HI-1, 7,3,4′-trihydroxyisoflavone] | 5 | –
Oc1cc(O)c2cc(O)c(-c3cc(O)c(O)c(O)c3)[o+]c2c1 [HI-2, delphiniden] | – | 1.7
C=CCc1ccc(O)c(-c2cc(CC=C)ccc2O)c1 [HI-3, magnolol] | < 1.3 | –
O=c1c(-c2ccc(O)cc2)coc2cc(O)c(O)cc12 [HI-4, 6,7,4′-trihydroxyisoflavone] | < 1.3 | –
O=C1C[C@@H](c2ccc(O)cc2)Oc2cc(O)cc(O)c21 [HI-5, naringenin] | 2 | –

Same assay, conditions: third rating in cell

Compound | Rating (ARE)
Oc1cc(O)c2cc(O)c(-c3cc(O)c(O)c(O)c3)[o+]c2c1 [HI-2, delphiniden] | none
C=CCc1ccc(O)c(-c2cc(CC=C)ccc2O)c1 [HI-3, magnolol] | none
O=c1c(-c2ccc(O)cc2)coc2cc(O)c(O)cc12 [HI-4, 6,7,4′-trihydroxyisoflavone] | ****, ****, **** (very high activity (>76%))
O=C1C[C@@H](c2ccc(O)cc2)Oc2cc(O)cc(O)c21 [HI-5, naringenin] | **** (very high activity (>76%))
